Source: patent EP0279458A1, “2-Propyl amine derivatives, processes for their preparation and their use” (GÖDECKE AKTIENGESELLSCHAFT, priority 1987, dated 1988)
Where a name gives a salt, the structure may show the parent alone.

System: Proteinkinase C (PKC)
Assay: Inhibition of PS/DO-mediated protein kinase C activity (32P incorporation into histone H-1)
Format: biochemical, Hühner
Text: Zur Klärung des hemmenden Einflusses der erfindungsgemäßen Verbindungen der allgemeinen Formel I auf die Calcium- und Phospholipid-abhängige Proteinkinase (PKC) wurde diese Enzymaktivität ausgehend von einem Hühnermagenextrakt angereichert. In Anlehnung an in der Literatur beschriebene Reinigungsschritte (J. Biol. Chem. 260, S. 15718-15722, 1985) wurde bei der aus 2 Schritten bestehenden Reinigung die Eigenschaft des Enzyms ausgenutzt, in Anwesenheit von Calcium an Zellmembranen zu binden und durch Calciumchelatoren (EGTA) wieder abgelöst zu werden. Beim 1. Anreicherungsschritt erfolgte die Bindung der PKC an Membranen des Hühnermagenextraktes und im 2. Schritt an sogenannte Inside/Out-Vesikel von Erythrozyten. Nach Ablösung von den Erythrozyten-Membranen und Umpufferung lag die PKC-Präparation in 10 mM HEPES, 1 mM DTT, 0,1% PEG 20000, pH 7,5 vor und konnte unter diesen Bedingungen bei -70°C für mehrere Monate ohne Aktivitätsverlust gelagert werden.
Die Aktivität des Enzyms wurde über den Einbau von Phosphor-32-markiertem Phosphat in das durch PKC phosphorylierbare Protein Histon H-1 bestimmt. Der Test enthält dabei folgende Kumponenten: 50 mM HEPES (pH 7,5), 1 mM DTT, 5 mM MgCl₂, ca. 10 µM freies Ca²⁺, 200 µg/ml Histon, 5 µg/ml Phosphatidylserin, 1 µg/ml 1,2-Diolein, 10 µM ATP, eine jeweils geeignete Menge der PKC-Präparation und gegebenenfalls eine Testsubstanz. Die unter Standardbedingungen gemessene Kinase-Aktivität in Anwesenheit von PKC-Aktivatoren (und ohne Testsubstanz) wurde jeweils als 100% gesetzt und die Hemmwirkung der Verbindungen der allgemeinen Formel I prozentual darauf bezogen.
In Tabelle I ist die Inhibierung von PS/DO [PS: Phosphatidylserin, DO: 1,2-Diolein] vermittelter Proteinkinase C-Aktivität angegeben.

SMILES | Inhibierung der PS/ DO-vermittelten PKC-Aktivität (%) (konz. 1x10^-5 mol/l, 10 µM) | Inhibierung der PS/ DO-vermittelten PKC-Aktivität (%) (konz. 1x10^-4 mol/l, 100 µM) | Inhibierung der PS/ DO-vermittelten PKC-Aktivität (%) (konz. 1x10^-6 mol/l)
CCCCCCCCCCCCCCCCOCC(COC(C)=O)N(C)C (racemic) [Beispiel 1a, (±)-2-Dimethylamino-3-hexadecyloxy-1-propylacetat Oxalat] | 23% | – | –
CCCCCCCCCCCCCCCCCCOCC(COC(=O)c1ccccc1)[N+](C)(C)C (racemic) [Beispiel 4, (±)-1-Benzoyloxy-3-octadecyloxy-2-propyl-trimethylammoniumjodid] | 90% | 104% | 21%
CCCCCCCCCCCCCCCCCCOCC(N)CO (racemic) [Beispiel 6, (±)-2-Amino-3-octadecyloxy-1-propanol, reference compound] | 69% | – | 11%
CCCCCCCCCCCCCCCCCCOCC(CO)N(CC)CC.O=C(O)C(=O)O (racemic) [Beispiel 2a, (±)-2-Diethylamino-3-octadecyloxy-1-propanol Oxalat] | 78% | 100% | 11%
CCCCCCCCCCCCCCCCCCOCC(CO)NCC (racemic) [Beispiel 2, (±)-2-Ethylamino-octadecyloxy-1-propanol · Hydrochlorid] | 91% | 99% | 23%
CCCCCCCCCCCCCCCCCCOCC(COC(C)=O)N(C)C (racemic) [Beispiel 1, (±)-2-Dimethylamino-3-octadecyloxy-1-propylacetat · Hydrochlorid] | 28% | – | –
CCCCCCCCCCCCCCOCC(COC(C)=O)N(C)C (racemic) [Beispiel 1b, (±)-2-Dimethylamino-3-tetradecyloxy-1-propylacetat Oxalat] | 36% | – | –
CCCCCCCCCCCCCCCCCCSCC(N)CO (racemic) [Beispiel 5, (±)-2-Amino-3-octadecylthio-1-propanol] | 39% | – | 12%
